Data published in US6630466B2, “Medicament compositions containing anticholinergically-effective compounds and salmeterol” (priority 1999, dated 2003).
Several values for one entry are separate records, joined by “and”; a condition that tells them apart may be missing. Identical values can stand only once. Counter-ions that a name gives are not always drawn.

How the values were obtained:
[1] = test system: bronchial resistance of narcotized dogs; assay: Bronchospasmolytic effect: inhibition of ACh-induced increase of pulmonary resistance in narcotized dogs after inhalative application via […]; format: in vivo, dog; conditions: single substances 3 and 10 μg, combination 3 μg + 3 μg
Experimental: (§1) 18 mongrel dogs with a body weight of 27 to 32 kg. Kept in individual or communal cages, pelleted standard food, last fed approximately 15 hours before the start of the tests, drinking water freely available.
(§2) After pre-medication with 2 mg/kg morphine hydrochloride i.m., 30 mg/kg pentobarbital-sodium (NEMBUTAL®) is slowly injected intravenously. The animals are relaxed with 1.0 mg/kg i.v. suxamethonium.
After intubation via a servo ventilator 900C (Siemens), the animals are ventilated with ambient air and oxygen (4:1), frequency 15/min., breath volume 6 to 8 L/min. For registration of the breathing mechanics, breath flow is determined by means of a pressurizing pipe (flesh no. 1), installed directly before the orotracheal tube, of a differential pressure recorder and amplifier DCB-4C. A catheter is placed in the trachea and a second (balloon) catheter is placed in the lung section of the esophagus. Both are connected with a differential pressure recorder and amplifier for determination of the transpulmonary pressure. A breath mechanics computer (IFD-Mühlheim) determines the pulmonary resistance (R) from the registered pressure values. From this, a computer program VAS-1 LA (IFD-Mühlheim) calculates: [formula] […]

[2] = test system: Heart Frequency of Narcotized Dogs; assay: Heart frequency of narcotized dogs after inhalative application via RESPIMAT (ECG, cardiotachometer)
Experimental: as §1, §2
Registration of heart frequency is via ECG (extremity derivative II) and cardiotachometer.
After an equilibration period of 30 minutes, short-term bronchospasms are generated by i.v. injection of 10 μg/kg acetylcholine chloride—this is repeated 2-3× within a 10-minute period. […] Application of the combinations takes place with the individual combinations with an interval of approximately 1 minute. With the BINEB system, the triggering mechanism takes place at the end of the expiration phase and the atomized solution is pressed into the tracheo-bronchial tree in the following inspiration phase of the breath pump.

[3] = 3 μg inhalative, 1 min after application, individual dog
[4] = 3 μg inhalative, 5 min after application, individual dog
[5] = 3 μg inhalative, 5 min after application, mean value, n = 6
[6] = 3 μg inhalative, 10 min after application, individual dog
[7] = 3 μg inhalative, 20 min after application, individual dog
[8] = 3 μg inhalative, 30 min after application, individual dog
[9] = 3 μg inhalative, 60 min after application, individual dog
[10] = 3 μg inhalative, 120 min after application, individual dog
[11] = 3 μg inhalative, 180 min after application, individual dog
[12] = 3 μg inhalative, 180 min after application, mean value, n = 6
[13] = 10 μg inhalative, 1 min after application, individual dog
[14] = 10 μg inhalative, 5 min after application, individual dog
[15] = 10 μg inhalative, 5 min after application, mean value, n = 6
[16] = 10 μg inhalative, 10 min after application, individual dog
[17] = 10 μg inhalative, 10 min after application, mean value, n = 6
[18] = 10 μg inhalative, 20 min after application, individual dog
[19] = 10 μg inhalative, 20 min after application, mean value, n = 6
[20] = 10 μg inhalative, 30 min after application, individual dog
[21] = 10 μg inhalative, 30 min after application, mean value, n = 6
[22] = 10 μg inhalative, 60 min after application, individual dog
[23] = 10 μg inhalative, 60 min after application, mean value, n = 6
[24] = 10 μg inhalative, 120 min after application, individual dog
[25] = 10 μg inhalative, 180 min after application, individual dog
[26] = 10 μg inhalative, 180 min after application, mean value, n = 6

## COc1ccc(CC(C)NCC(O)c2ccc(O)c(NC=O)c2)cc1 (centres unmarked) [formoterol fumarate, formoterol]
[1]
  onset of maximum bronchospasmolytic effect: rapidly occurs
[1]; test duration 180 minutes
  effective duration of bronchospasmolytic effect: comparatively short
[2]; [3]
  Heart frequency (beats/min.): 67.00 beats/min. and 91.00 beats/min. and 102.00 beats/min.
  Heart frequency, % alteration: 7.94% and −7.52% and 11.67% and 13.04% and 21.13% and 15.68%
[2]; 3 μg inhalative, 1 min after application, mean value, n = 6
  Heart frequency (beats/min.): 103.17 beats/min.
[2]; [4]
  Heart frequency (beats/min.): 140.00 beats/min. and 64.00 beats/min. and 95.00 beats/min.
  Heart frequency, % alteration: 11.11% and 5.26% and 6.67% and 18.01% and 28.64% and 25.41%
[2]; [5]
  Heart frequency (beats/min.): 109.50 beats/min.
  Heart frequency, % alteration: 15.85%
[2]; [6]
  Heart frequency (beats/min.): 100.00 beats/min. and 110.00 beats/min.
  Heart frequency, % alteration: 36.51% and 21.80% and 66.67% and 36.65% and 29.58%
[2]; 3 μg inhalative, 10 min after application, mean value, n = 6
  Heart frequency, % alteration: 37.72%
[2]; [7]
  Heart frequency (beats/min.): 165.00 beats/min. and 95.00 beats/min. and 100.00 beats/min. and 141.00 beats/min.
  Heart frequency, % alteration: 41.80% and 24.06% and 54.33% and 24.44% and 32.39% and 36.22%
[2]; 3 μg inhalative, 20 min after application, mean value, n = 6
  Heart frequency, % alteration: 36.17%
[2]; [8]
  Heart frequency (beats/min.): 159.00 beats/min. and 89.00 beats/min. and 95.00 beats/min.
  Heart frequency, % alteration: 46.03% and 48.33% and 18.01% and 38.38%
[2]; 3 μg inhalative, 30 min after application, mean value, n = 6
  Heart frequency, % alteration: 34.41%
[2]; [9]
  Heart frequency (beats/min.): 86.00 beats/min. and 94.00 beats/min. and 140.00 beats/min.
  Heart frequency, % alteration: 41.80% and 15.04% and 43.33% and 31.46% and 38.38%
[2]; 3 μg inhalative, 60 min after application, mean value, n = 6
  Heart frequency, % alteration: 31.13%
[2]; [10]
  Heart frequency (beats/min.): 88.00 beats/min. and 94.00 beats/min. and 130.00 beats/min. and 120.00 beats/min.
  Heart frequency, % alteration: 21.69% and 46.67% and 29.73%
[2]; [11]
  Heart frequency (beats/min.): 140.00 beats/min. and 86.00 beats/min. and 96.00 beats/min. and 130.00 beats/min. and 120.00 beats/min.
  Heart frequency, % alteration: 14.29% and 5.26% and 43.33% and 19.25% and 29.73%
[2]; [12]
  Heart frequency (beats/min.): 113.33 beats/min.
  Heart frequency, % alteration: 22.32%
[2]; [13]
  Heart frequency (beats/min.): 96.00 beats/min.
  Heart frequency, % alteration: 22.75% and 9.02% and 81.67% and 19.25% and −1.41% and 31.89%
[2]; 10 μg inhalative, 1 min after application, mean value, n = 6
  Heart frequency, % alteration: 27.20%
[2]; [14]
  Heart frequency (beats/min.): 136.00 beats/min. and 120.00 beats/min. (2×)
  Heart frequency, % alteration: 61.90% and 2.26% and 143.33% and 49.07% and 12.68% and 31.89%
[2]; [15]
  Heart frequency (beats/min.): 132.83 beats/min.
  Heart frequency, % alteration: 50.19%
[2]; [16]
  Heart frequency (beats/min.): 191.00 beats/min. and 152.00 beats/min. and 144.00 beats/min. and 160.00 beats/min. and 130.00 beats/min. and 155.00 beats/min.
  Heart frequency, % alteration: 64.02% and 43.61% and 153.33% and 78.88% and 50.23% and 40.54%
[2]; [17]
  Heart frequency (beats/min.): 155.33 beats/min.
  Heart frequency, % alteration: 71.77%
[2]; [18]
  Heart frequency (beats/min.): 204.00 beats/min. and 156.00 beats/min. and 135.00 beats/min. and 157.00 beats/min.
  Heart frequency, % alteration: 66.14% and 53.38% and 155.00% and 93.79% and 48.36% and 45.95%
[2]; [19]
  Heart frequency (beats/min.): 160.50 beats/min.
  Heart frequency, % alteration: 77.10%
[2]; [20]
  Heart frequency (beats/min.): 207.00 beats/min. and 150.00 beats/min. (2×) and 156.00 beats/min. and 140.00 beats/min. and 159.00 beats/min.
  Heart frequency, % alteration: 68.25% and 55.64% and 150.00% and 93.79% and 40.85% and 51.35%
[2]; [21]
  Heart frequency (beats/min.): 160.33 beats/min.
  Heart frequency, % alteration: 76.65%
[2]; [22]
  Heart frequency (beats/min.): 210.00 beats/min. and 149.00 beats/min. and 140.00 beats/min. (2×) and 150.00 beats/min. and 163.00 beats/min.
  Heart frequency, % alteration: 72.49% and 57.89% and 148.33% and 73.91% and 40.85% and 51.35%
[2]; [23]
  Heart frequency (beats/min.): 158.67 beats/min.
  Heart frequency, % alteration: 74.14%
[2]; [24]
  Heart frequency (beats/min.): 209.00 beats/min. and 140.00 beats/min. and 135.00 beats/min. and 176.00 beats/min.
  Heart frequency, % alteration: 86.24% and 57.14% and 143.33% and 73.91% and 45.95%
[2]; 10 μg inhalative, 120 min after application, mean value, n = 6
  Heart frequency, % alteration: 73.79%
[2]; [25]
  Heart frequency (beats/min.): 205.00 beats/min. and 141.00 beats/min. and 130.00 beats/min. and 135.00 beats/min. and 152.00 beats/min.
  Heart frequency, % alteration: 60.85% and 54.14% and 135.00% and 61.49% and 45.95%
[2]; [26]
  Heart frequency (beats/min.): 151.33 beats/min.
  Heart frequency, % alteration: 65.59%
[2]; high dosage (10 μg)
  maximum increase of heart frequency: over 90%
[2]; high dosage (10 μg), end of test (180 minutes)
  increase of heart frequency after the end of the test: over 80%
